Data reported in patent US11124519B2, “Cocrystal forms of ((1S,2S,4R)-4-{4-[(1S)-2,3-dihydro-1H-inden-1-ylamino]-7H-pyrrolo [2,3-d]pyrimidin-7-yl}-2-hydroxycyclopentyl) methyl sulfamate, formulations and uses thereof” (Millennium Pharmaceuticals, Inc., priority 2017, dated 2021).
Entries after “also recorded” stand apart in the source; their conditions may differ. Counter-ions that a name gives are not always drawn. Like-named read-outs stand apart in the source and are kept apart here. Marks after values point to notes of the source that are not given here. Each block holds one molecule with its values, some of them ahead of it.

What was measured:
[1] = Aqueous solubility estimate in water by solvent addition method; settings: for Solubility Estimate: solvent addition method, visual assessment, rounded to nearest whole number
[2] = Chemical stability under temperature/humidity stress, HPLC purity at t=0 and t=14 days; settings: for Purity after 60° C./75% RH, 2 weeks / Purity after 60° C./ambient RH, 2 weeks: HPLC; for Chemical stability under the stressed conditions (in words): 60° C./ambient RH and 60° C./75% RH; for Purity after 60° C./75% RH, 2 weeks / Chemical stability under the stressed conditions (in words) / Purity after 60° C./ambient RH, 2 weeks: 2 weeks; for Purity T = 0: unstressed, t=0, HPLC
Experimental: (§1) High Performance Liquid Chromatography (HPLC): HPLC analyses were performed using an Agilent 1100 series liquid chromatograph equipped with a variable wavelength detector and binary pump for sequence file 552094, and a diode array detector and quaternary pump for the remaining sequences. […] Degasser and an autosampler (set to ˜5° C.) were equipped for all sequences. The chromatographic column was a 150×4.6 mm Aquasil C18 column with 3 μm packing (Thermo Scientific). The column temperature was set to 40° C., and the detector wavelength was 280 nm with a bandwidth of 8 nm. The injection volume was 15 μL. Mobile phase A was 0.1% TFA in Water, and mobile phase B was 0.1% TFA in Acetonitrile. The flow rate used was 0.5 L/minute. Mobile phases were filtered and degassed through a 0.45 μm nylon filter under vacuum prior to use, except for Mobile phase A used in sequence file 554410 due to time constraints.
(§2) The physical and chemical stability of the glycolic acid, hippuric acid, malonic acid, and saccharin cocrystals were evaluated at two stress conditions (60° C./ambient relative humidity and 60° C./75% relative humidity) and compared to MLN4924 HCl salt.
(§3) Chemical stability was assessed via HPLC analysis of samples at t=0 and t=14 days.

[3] = Physical stability on exposure to elevated relative humidity (deliquescence); assay type: physicochemical; settings: RT
Source text: Each cocrystal was also exposed to elevated relative humidity (first ˜75% RH, then ˜97% RH) for specified time periods (Table 20).

[4] = 2 weeks
Experimental: as §1, §2, §3

[5] = physchem; settings: water, thermodynamic from solid
[6] = cited from earlier work
[7] = Physical stability under temperature/humidity stress, XRPD comparison of unstressed and stressed samples; assay type: physicochemical; settings: 60° C./75% RH, 2 weeks; listed as MLN4924-HCl
Experimental: Physical stability was assessed by comparison of XRPD patterns of the unstressed and stressed samples.

[8] = listed as Glycolic acid (Form A)
[9] = listed as Hippuric acid (Form B)
[10] = listed as Malonic acid (Form M)

Compound: NS(=O)(=O)OC[C@@H]1C[C@@H](n2ccc3c(N[C@H]4CCc5ccccc54)ncnc32)C[C@@H]1O [Form A, ((1S,2S,4R)-4-{4-[(1S)-2,3-dihydro-1H-inden-1-ylamino]-7H-pyrrolo[2,3-d]pyrimidin-7-yl}-2-hydroxycyclopentyl)methyl sulfamate]
Solubility Estimate [1]: <1^c mg/mL | Purity after 60° C./75% RH, 2 weeks [2, 8]: 93.0% | Chemical stability under the stressed conditions (in words) ([2]; listed as glycolic acid cocrystal): limited stability | Purity after 60° C./ambient RH, 2 weeks [2, 8]: 95.9% | Purity T = 0 [2, 8]: 96.9% | Observations After Stress ([3]; ~75% RH stress, ~3 days): Free flowing solids | Observations After Stress ([3]; ~97% RH stress, ~2 days): Free flowing solids

Compound: NS(=O)(=O)OC[C@@H]1C[C@@H](n2ccc3c(N[C@H]4CCc5ccccc54)ncnc32)C[C@@H]1O [Form B, ((1S,2S,4R)-4-{4-[(1S)-2,3-dihydro-1H-inden-1-ylamino]-7H-pyrrolo[2,3-d]pyrimidin-7-yl}-2-hydroxycyclopentyl)methyl sulfamate]
Solubility Estimate [1]: <1 mg/mL | Purity after 60° C./75% RH, 2 weeks [2, 9]: 93.9% | Chemical stability under the stressed conditions (in words) ([2]; listed as hippuric acid cocrystal): little decomposition; also recorded: improvement in stability over the current MLN4924 HCl form | Purity after 60° C./ambient RH, 2 weeks [2, 9]: 94.1% | Purity T = 0 [2, 9]: 94.4% | Observations After Stress ([3]; ~75% RH stress, ~3 days): Free flowing solids | Observations After Stress ([3]; ~97% RH stress, ~2 days): Free flowing solids

Compound: NS(=O)(=O)OC[C@@H]1C[C@@H](n2ccc3c(N[C@H]4CCc5ccccc54)ncnc32)C[C@@H]1O [Form F, ((1S,2S,4R)-4-{4-[(1S)-2,3-dihydro-1H-inden-1-ylamino]-7H-pyrrolo[2,3-d]pyrimidin-7-yl}-2-hydroxycyclopentyl)methyl sulfamate]
Purity after 60° C./75% RH, 2 weeks ([2]; listed as Saccharin (Form F)): 91.0% | Purity after 60° C./ambient RH, 2 weeks ([2]; listed as Saccharin (Form F)): 91.2% | Purity T = 0 ([2]; listed as Saccharin (Form F)): 91.2% | Purity T = 0 ([2]; listed as saccharin cocrystal): about 91% | Chemical stability under the stressed conditions (in words) [4]: improvement in stability over the current MLN4924 HCl form | Observations After Stress ([3]; ~75% RH stress, ~3 days): Free flowing solids | Observations After Stress ([3]; ~97% RH stress, ~2 days): Free flowing solids

Compound: NS(=O)(=O)OC[C@@H]1C[C@@H](n2ccc3c(N[C@H]4CCc5ccccc54)ncnc32)C[C@@H]1O [Form G, ((1S,2S,4R)-4-{4-[(1S)-2,3-dihydro-1H-inden-1-ylamino]-7H-pyrrolo[2,3-d]pyrimidin-7-yl}-2-hydroxycyclopentyl)methyl sulfamate]
Observations After Stress ([3]; ~75% RH stress, ~3 days): Free flowing solids | Observations After Stress ([3]; ~97% RH stress, ~2 days): Slightly tacky solids | Observations After Stress ([3]; ~97% RH stress, ~2 days, listed as solvated piperazine cocrystal): slightly tacky

Compound: NS(=O)(=O)OC[C@@H]1C[C@@H](n2ccc3c(N[C@H]4CCc5ccccc54)ncnc32)C[C@@H]1O [Form H, ((1S,2S,4R)-4-{4-[(1S)-2,3-dihydro-1H-inden-1-ylamino]-7H-pyrrolo[2,3-d]pyrimidin-7-yl}-2-hydroxycyclopentyl)methyl sulfamate]
solubility [5]: < 1000 µg/mL | Observations After Stress ([3]; ~75% RH stress, ~3 days): Free flowing solids | Observations After Stress ([3]; ~97% RH stress, ~2 days): Free flowing solids

Compound: NS(=O)(=O)OC[C@@H]1C[C@@H](n2ccc3c(N[C@H]4CCc5ccccc54)ncnc32)C[C@@H]1O [Form J, ((1S,2S,4R)-4-{4-[(1S)-2,3-dihydro-1H-inden-1-ylamino]-7H-pyrrolo[2,3-d]pyrimidin-7-yl}-2-hydroxycyclopentyl)methyl sulfamate]
Observations After Stress ([3]; ~75% RH stress, ~3 days): Free flowing solids | Observations After Stress ([3]; ~97% RH stress, ~2 days): Free flowing solids

More lines, main results first:

Observations After Stress ([3]; ~75% RH stress, ~4 days): Free flowing solids | Observations After Stress ([3]; ~97% RH stress, ~1 day): Free flowing solids
Compound: NS(=O)(=O)OC[C@@H]1C[C@@H](n2ccc3c(N[C@H]4CCc5ccccc54)ncnc32)C[C@@H]1O [Form L, ((1S,2S,4R)-4-{4-[(1S)-2,3-dihydro-1H-inden-1-ylamino]-7H-pyrrolo[2,3-d]pyrimidin-7-yl}-2-hydroxycyclopentyl)methyl sulfamate]

solubility ([1]; thermodynamic from solid): < 1000 µg/mL | Purity after 60° C./75% RH, 2 weeks [2, 10]: 99.0% | Chemical stability under the stressed conditions (in words) ([2]; listed as malonic acid): highest final purity | Purity after 60° C./ambient RH, 2 weeks [2, 10]: 99.1% | Purity T = 0 [2, 10]: 99.0% | Purity T = 0 ([2]; listed as malonic acid): highest initial purity | Observations After Stress ([3]; ~75% RH stress, ~4 days): Free flowing solids | Observations After Stress ([3]; ~97% RH stress, ~1 day): Free flowing solids
Compound: NS(=O)(=O)OC[C@@H]1C[C@@H](n2ccc3c(N[C@H]4CCc5ccccc54)ncnc32)C[C@@H]1O [Form M, ((1S,2S,4R)-4-{4-[(1S)-2,3-dihydro-1H-inden-1-ylamino]-7H-pyrrolo[2,3-d]pyrimidin-7-yl}-2-hydroxycyclopentyl)methyl sulfamate]
Chemical stability under the stressed conditions (in words) ([2]; listed as malonic acid cocrystal): little decomposition; also recorded: improvement in stability over the current MLN4924 HCl form

Solubility Estimate [1]: <1^c mg/mL | Observations After Stress ([3]; ~75% RH stress, ~4 days): Free flowing solids | Observations After Stress ([3]; ~97% RH stress, ~1 day): Free flowing solids
Compound: NS(=O)(=O)OC[C@@H]1C[C@@H](n2ccc3c(N[C@H]4CCc5ccccc54)ncnc32)C[C@@H]1O [Form N, ((1S,2S,4R)-4-{4-[(1S)-2,3-dihydro-1H-inden-1-ylamino]-7H-pyrrolo[2,3-d]pyrimidin-7-yl}-2-hydroxycyclopentyl)methyl sulfamate]

Purity after 60° C./75% RH, 2 weeks [2]: 96.6% | Chemical stability under the stressed conditions (in words) ([2]; listed as MLN4924-HCl): limited stability | Purity after 60° C./ambient RH, 2 weeks [2]: 94.6% | Purity T = 0 [2]: 98.2% | Form change (XRPD) [7]: new unique crystalline XRPD pattern
Compound: NS(=O)(=O)OC[C@@H]1C[C@@H](n2ccc3c(N[C@H]4CCc5ccccc54)ncnc32)C[C@@H]1O [HCl, ((1S,2S,4R)-4-{4-[(1S)-2,3-dihydro-1H-inden-1-ylamino]-7H-pyrrolo[2,3-d]pyrimidin-7-yl}-2-hydroxycyclopentyl)methyl sulfamate, reference compound]
Chemical stability during accelerated stress condition [6]: limited chemical stability
